Values quoted from earlier work in US9198430B2, “Anti-parasitic composition comprising a macrocyclic lactone and levamisole and method of treatment of parasitic infestation” (BAYER NEW ZEALAND LIMITED, priority 2011, dated 2015).
Where two headings read alike, the source gives them in different places.

Details: unlabelled doramectin 0.2 mg/kg bodyweight

CO[C@H]1C[C@H](O[C@H]2[C@H](C)O[C@@H](O[C@@H]3/C(C)=C/C[C@@H]4C[C@@H](C[C@]5(C=C[C@H](C)[C@@H](C6CCCCC6)O5)O4)OC(=O)[C@@H]4C=C(C)[C@@H](O)[C@H]5OC/C(=C\C=C\[C@@H]3C)[C@]54O)C[C@@H]2OC)O[C@@H](C)[C@@H]1O [doramectin, Doramectin]
Residues of Doramectin, Fat (Day 21): 182 µg/kg | Residues of Doramectin, Injection (site) (Day 21): 1900 µg/kg | Residues of Doramectin, Kidney (Day 21): 11 µg/kg | Residues of Doramectin, Liver (Day 21): 107 µg/kg | Residues of Doramectin, Muscle (Day 21): <7 µg/kg | Residues of Doramectin, Fat (Day 28): 94 µg/kg | Residues of Doramectin, Injection (site) (Day 28): 380 µg/kg | Residues of Doramectin, Kidney (Day 28): 8.8 µg/kg | Residues of Doramectin, Liver (Day 28): 66 µg/kg | Residues of Doramectin, Muscle (Day 28): <4 µg/kg | Residues of Doramectin, Fat (Day 35): 57 µg/kg | Residues of Doramectin, Injection (site) (Day 35): 930 µg/kg | Residues of Doramectin, Kidney (Day 35): <4.5 µg/kg | Residues of Doramectin, Liver (Day 35): 29 µg/kg | Residues of Doramectin, Muscle (Day 35): <3 µg/kg
